Tested on: human monocyte stimulated cytokine production (TNF-α)
Test: Monocyte assay (LPS-stimulated TNF-α production)
Format: cell-based
Conditions: for IC50: human CD14+ monocytes, 200 ng/mL LPS, 24 hrs, values given as 'about', read-out: pIC50 in the monocyte assay (converted); for inhibition at 0.3 µM: 300 nM, human monocytes, LPS
Method: Effect of IKK-β inhibition on human monocyte stimulated cytokine production was assessed as follows: Monocytes were isolated from heparinized whole blood by Ficoll gradient, followed by purification of CD14+ cells using MACS magnetic cell separation beads. Isolated monocytes were then adhered to 96-well culture plates at 1×10^6 cells/mL in RPMI 1640 10% FBS (JRH Biosciences, Lenexa Kans.) for 2 h. Test compounds are added to the wells 30 minutes prior to stimulation with a final vehicle concentration of 0.1% DMSO. Monocytes were activated by the addition of 200 ng/mL endotoxin (LPS; E. coli serotype 026:B6) (Sigma, St. Louis, Mo.) and incubated for 24 hrs at 37 C. Cell-free supernates were analyzed by Alphascreen™ (Perkin Elmer, Waltham, Mass.) for TNF-α using R&D Systems matched pair Abs. Viability of the cells was determined by 10% trypan blue exclusion.

SMILES	IC50 [nM]	inhibition at 0.3 µM [%]
CC(C)[C@H]1C[C@H](c2c[nH]c3c(C(N)=O)cc(-c4ccsc4)cc23)CCS1(=O)=O (racemic) [Example 241, (racemic)-3-[trans-2-(1-Methylethyl)-1,1-dioxidotetrahydro-2H-thiopyran-4-yl]-5-(3-thienyl)-1H-indole-7-carboxamide]	5.01 to 1000	–
NC(=O)c1cc(-c2ccc(F)cc2)cc2c(C3CCCS(=O)(=O)C3)c[nH]c12 (stereo not shown) [Example 220, 3-(1,1-Dioxidotetrahydro-2H-thiopyran-3-yl)-5-(4-fluorophenyl)-1H-indole-7-carboxamide]	–	0 to 100
NC(=O)c1cc(-c2csc(CN3CCCCCC3)c2)cc2c(C3CCS(=O)(=O)CC3)c[nH]c12 [Example 72, 3-(1,1-Dioxidotetrahydro-2H-thiopyran-4-yl)-5-[5-(hexahydro-1H-azepin-1-ylmethyl)-3-thienyl]-1H-indole-7-carboxamide]	5.01 to 1000	–
NC(=O)c1cc(-c2csc(CN3CCC3)c2)cc2c(C3CCS(=O)(=O)CC3)c[nH]c12 [Example 70, 5-[5-(1-Azetidinylmethyl)-3-thienyl]-3-(1,1-dioxidotetrahydro-2H-thiopyran-4-yl)-1H-indole-7-carboxamide]	–	0 to 100
NC(=O)c1cc(-c2csc(CN3CCCCCC3)c2)cc2c(C3CC4CCC(C3)S4(=O)=O)c[nH]c12 (stereo not drawn) [Example 208, 3-[(3-exo)-8,8-Dioxido-8-thiabicyclo[3.2.1]oct-3-yl]-5-[5-(hexahydro-1H-azepin-1-ylmethyl)-3-thienyl]-1H-indole-7-carboxamide]	–	0 to 100
NC(=O)c1cc(-c2ccsc2)cc2c([C@@H]3CCS(=O)(=O)[C@H](c4ccccc4)C3)c[nH]c12 [Example 247, 3-[(2S,4R)1,1-dioxido-2-phenyltetrahydro-2H-thiopyran-4-yl]-5-(3-thienyl)-1H-indole-7-carboxamide]	5.01 to 1000	–
NC(=O)c1cc(-c2ccco2)cc2c(C3CCCS(=O)(=O)C3)c[nH]c12 (stereo not shown) [Example 218, 3-(1,1-Dioxidotetrahydro-2H-thiopyran-3-yl)-5-(2-furanyl)-1H-indole-7-carboxamide]	5.01 to 1000	–
NC(=O)c1cc(-c2csc(CN3CCCC3)c2)cc2c(C3CC4CCC(C3)S4(=O)=O)c[nH]c12 (stereo not drawn) [Example 205, 3-[(3-endo)-8,8-Dioxido-8-thiabicyclo[3.2.1]oct-3-yl]-5-[5-(1-pyrrolidinylmethyl)-3-thienyl]-1H-indole-7-carboxamide]	5.01 to 1000	–
NC(=O)c1cc(-c2ccsc2)cc2c(CC3CCS(=O)(=O)C3)c[nH]c12 (stereo not shown) [Example 260, 3-[(1,1-Dioxidotetrahydro-3-thienyl)methyl]-5-(3-thienyl)-1H-indole-7-carboxamide]	5.01 to 1000	–
CC1(C)CC(c2c[nH]c3c(C(N)=O)cc(-c4ccc(S(=O)(=O)N5CCCC5)s4)cc23)CCS1(=O)=O (stereo not shown) [Example 239, 3-(2,2-Dimethyl-1,1-dioxidotetrahydro-2H-thiopyran-4-yl)-5-[5-(1-pyrrolidinylsulfonyl)-2-thienyl]-1H-indole-7-carboxamide]	5.01 to 1000	–
NC(=O)c1cc(-c2ccoc2)cc2c(C3CCS(=O)(=O)C3)c[nH]c12 (stereo not shown) [Example 189, 3-(1,1-Dioxidotetrahydro-3-thienyl)-5-(3-furanyl)-1H-indole-7-carboxamide]	> 1000	–
NC(=O)c1cc(-c2csc(CN3CCCCCC3)c2)cc2c(CC3CCS(=O)(=O)CC3)c[nH]c12 [Example 258, 3-[(1,1-dioxidotetrahydro-2H-thiopyran-4-yl)methyl]-5-[5-(hexahydro-1H-azepin-1-ylmethyl)-3-thienyl]-1H-indole-7-carboxamide]	5.01 to 1000	–
NC(=O)c1cc(-c2nc(Br)cs2)cc2c(C3CCS(=O)(=O)CC3)c[nH]c12 [Example 83, 5-(4-Bromo-1,3-thiazol-2-yl)-3-(1,1-dioxidotetrahydro-2H-thiopyran-4-yl)-1H-indole-7-carboxamide]	> 1000	–
CC1(C)CC(c2c[nH]c3c(C(N)=O)cc(-c4ccoc4)cc23)CCS1(=O)=O (stereo not shown) [Example 228, 3-(2,2-Dimethyl-1,1-dioxidotetrahydro-2H-thiopyran-4-yl)-5-(3-furanyl)-1H-indole-7-carboxamide]	5.01 to 1000	–
NC(=O)c1cc(-c2ccccc2)cc2c([C@H]3CCS(=O)(=O)[C@@H](c4ccccc4)C3)c[nH]c12 (racemic) [Example 252, 3-(1,1-Dioxido-2-phenyltetrahydro-2H-thiopyran-4-yl)-5-phenyl-1H-indole-7-carboxamide]	5.01 to 1000	–
CC1(C)CC(c2c[nH]c3c(C(N)=O)cc(-c4csc(CN5CCC5)c4)cc23)CCS1(=O)=O (stereo not shown) [Example 234, 5-[5-(1-Azetidinylmethyl)-3-thienyl]-3-(2,2-dimethyl-1,1-dioxidotetrahydro-2H-thiopyran-4-yl)-1H-indole-7-carboxamide]	5.01 to 1000	–
CC1(C)CC(c2c[nH]c3c(C(N)=O)cc(-c4ccc(S(=O)(=O)C5CCCC5)s4)cc23)CCS1(=O)=O (stereo not shown) [Example 240, 5-[5-(Cyclopentylsulfonyl)-2-thienyl]-3-(2,2-dimethyl-1,1-dioxidotetrahydro-2H-thiopyran-4-yl)-1H-indole-7-carboxamide]	5.01 to 1000	–
NC(=O)c1cc(-c2ccccc2)cc2c(C3CCCS(=O)(=O)C3)c[nH]c12 (stereo not shown) [Example 221, 3-(1,1-Dioxidotetrahydro-2H-thiopyran-3-yl)-5-phenyl-1H-indole-7-carboxamide]	–	0 to 100
NC(=O)c1cc(-c2ccccc2)cc2c(C3CCS(=O)(=O)CC3)c[nH]c12 [Example 1, 3-(1,1-Dioxidotetrahydro-2H-thiopyran-4-yl)-5-phenyl-1H-indole-7-carboxamide]	5.01 to 1000	–
